The text below walks through data of patent US10226452B2, “Benzoxazolone derivatives as acid ceramidase inhibitors, and their use as medicaments” (FONDAZIONE ISTITUTO ITALIANO DI TECNOLOGIA, priority 2014, dated 2019).

Chain of human (hAC) acid ceramidase (Q13510 22-142): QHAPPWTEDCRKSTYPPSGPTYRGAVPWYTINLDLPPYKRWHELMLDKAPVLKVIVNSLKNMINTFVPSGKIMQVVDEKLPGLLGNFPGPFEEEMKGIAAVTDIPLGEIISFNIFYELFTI
Chain of human (hAC) acid ceramidase (Q13510 143-395): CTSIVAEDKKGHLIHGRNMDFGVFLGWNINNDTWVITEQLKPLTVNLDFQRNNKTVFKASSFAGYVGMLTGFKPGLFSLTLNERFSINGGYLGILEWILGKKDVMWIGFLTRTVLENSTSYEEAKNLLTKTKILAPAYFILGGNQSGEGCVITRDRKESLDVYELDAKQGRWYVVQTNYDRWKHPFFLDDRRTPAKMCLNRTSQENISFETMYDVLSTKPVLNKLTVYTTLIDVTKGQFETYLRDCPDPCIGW

In the assay the target is human (hAC) acid ceramidase (Homo sapiens (Human), UniProt Q13510). Put plainly: fluorescent-based in vitro assay on human acid ceramidase. Particulars: hAC-enriched lysosomal lysate from HEK293 cells; fluorogenic probe 5 μM; pH 4.5. The class given is biochemical. From the text:
To evaluate the potency of the compounds towards acid ceramidase, a fluorescence-based in vitro assay previously described in literature (Bedia C et al., ChemBioChem, 2007, 8, 642-648) was implemented and optimized. This assay is based on a “fluorogenic probe” containing a coumarin group and a sphingoid base moiety (see figure below), which is not fluorescent in itself, but upon enzymatic cleavage by acid ceramidase followed by a chemical transformation liberates the fluorescent molecule umbelliferone (7-hydroxychromen-2-one). By quantifying the generation of umbelliferone using a fluorescence plate-reader, the level of enzymatic activity can be measured, whereby IC50 values of compounds that inhibit this activity can be generated.
Lysosomal lysate, enriched with acid ceramidase, was prepared from a cell line stably expressing human acid ceramidase. In the assay, the fluorogenic probe (or substrate) serves as a ceramide-analogue, which is recognized and hydrolyzed at the amide bond by acid ceramidase from the enriched lysate to yield the fatty acid and coumarinic aminodiol. By treating the solution with sodium periodate (NaIO4), the coumarinic aminodiol is subsequently oxidized into an aldehyde intermediate, which undergoes a β-elimination reaction to release the strongly fluorescent umbelliferone.
A lysosomal human acid ceramidase protein preparation was obtained from HEK293 cells stably expressing acid ceramidase suspended in 20 mM Tris HCl (pH 7.5) with 0.32 M sucrose. The cell solution was sonicated and centrifuged at 800×g for 15 min at 4° C. Supernatants were then centrifuged at 12,000×g for 30 min at 4° C. Pellets were re-suspended in PBS pH 7.4 and subjected to two freeze-thaw cycles at −80° C. The suspension was finally centrifuged at 105,000×g for 1 hour at 4° C. and protein concentration was measured in the supernatant with bicinchinonic-acid based protein assay. This human acid ceramidase-enriched preparation allowed us to further optimize the enzymatic assay and to use smaller amounts of lysate (2 μg/well) and substrate (5 μM).
The assay was performed in Optiplate 96-wells black plates, with each reaction well containing a mixture of 25 mM sodium acetate buffer pH 4.5 and a fixed amount of protein (2 μg) in a volume of 85 μL. After 30 mins of pre-incubation with test compounds (diluted 20× from DMSO stock solutions at different concentrations), the fluorogenic probe was added (diluted 20× from EtOH stock solution, final concentration 5 μM). After incubation for 3 hours at 37° C., the reactions were stopped with 50 μL of methanol and 100 μL of a 2.5 mg/mL NalO4 fresh solution in 100 mM Glycine/NaOH pH 10.6. The plate was incubated at 37° C. for 2 hours in the dark and fluorescence intensities were measured at excitation/emission wavelengths of 360/446 nm. Negative control samples consisted of the same incubation mixture in the absence of protein extracts. The IC50 values or percent of inhibition, at the indicated concentration, of selected compounds described in the invention are reported in Table 2.
Regarding `CCCCCCCNC(=O)n1c(=O)oc2ccccc21` [Example 59, N-Heptyl-2-oxo-1,3-benzoxazole-3-carboxamide], the IC50 (commonly the midpoint of a concentration-inhibition curve) turned out to be 50 ± 7 nM.
Compound `O=C(NCCCCc1ccc(F)cc1)n1c(=O)oc2ccccc21` [Example 46, N-[4-(4-Fluorophenyl)butyl]-2-oxo-1,3-benzoxazole-3-carboxamide] gave an IC50 of 75 nM.
The same measure for `O=C(NCCCCc1ccc2ccccc2c1)n1c(=O)oc2ccccc21` [Example 52, N-[4-(2-Naphthyl)butyl]-2-oxo-1,3-benzoxazole-3-carboxamide]: 57 nM; for `O=C(NCCCCc1ccccc1)n1c(=O)oc2c(Br)cccc21` [Example 19, 7-Bromo-2-oxo-N-(4-phenylbutyl)-1,3-benzoxazole-3-carboxamide]: 18 ± 11 nM.
The result for `Cc1ccc2oc(=O)n(C(=O)NCCCCc3ccccc3)c2c1` [Example 8, 5-Methyl-2-oxo-N-(4-phenylbutyl)-1,3-benzoxazole-3-carboxamide] reads 117 ± 26 nM.
For the compound `O=C(NCCCc1cccc(F)c1)n1c(=O)oc2ccccc21` [Example 50, N-[3-(3-Fluorophenyl)propyl]-2-oxo-1,3-benzoxazole-3-carboxamide], the IC50 came to 49 nM.
The result for `O=C(NCCCCc1ccccc1)n1c(=O)oc2cc(F)ccc21` [Example 3, 6-Fluoro-2-oxo-N-(4-phenylbutyl)-1,3-benzoxazole-3-carboxamide] reads 10 ± 7 nM; that for `Cc1ccc2c(c1)oc(=O)n2C(=O)NCCCCc1ccccc1` [Example 9, 6-Methyl-2-oxo-N-(4-phenylbutyl)-1,3-benzoxazole-3-carboxamide], 66 ± 9 nM.
The result for `O=C(NCCCCc1ccccc1)n1c(=O)oc2cc(Cl)c(Cl)cc21` [Example 16, 5,6-Dichloro-2-oxo-N-(4-phenylbutyl)-1,3-benzoxazole-3-carboxamide] reads 18 ± 8 nM.
`O=C(NCCCCc1ccccc1)n1c(=O)oc2ccc(F)cc21` [Example 2, 5-Fluoro-2-oxo-N-(4-phenylbutyl)-1,3-benzoxazole-3-carboxamide] returned an IC50 of 56 ± 12 nM.
The result for `O=C(NCCCCC1CCCCC1)n1c(=O)oc2ccccc21` [Example 39, N-(4-Cyclohexylbutyl)-2-oxo-1,3-benzoxazole-3-carboxamide] reads 62 ± 44 nM.
The result for `CCC[C@H]1CC[C@H](CNC(=O)n2c(=O)oc3ccccc32)CC1` [Example 40, 2-Oxo-N-[(4-propylcyclohexyl)methyl]-1,3-benzoxazole-3-carboxamide] reads 135 ± 56 nM.
The result for `O=C(NCCCCc1ccccc1)n1c(=O)oc2ccc(-c3ccccc3)cc21` [Example 20, 2-Oxo-5-phenyl-N-(4-phenylbutyl)-1,3-benzoxazole-3-carboxamide] reads 22 nM.
The compound `O=C(c1ccccc1)c1ccc2c(c1)oc(=O)n2C(=O)NCCCCc1ccccc1` [Example 37, 6-Benzoyl-2-oxo-N-(4-phenylbutyl)-1,3-benzoxazole-3-carboxamide] registered an IC50 of 29 ± 1 nM.
The result for `CCC(=O)c1ccc2c(c1)oc(=O)n2C(=O)NCCCCc1ccccc1` [Example 36, 2-Oxo-N-(4-phenylbutyl)-6-propanoyl-1,3-benzoxazole-3-carboxamide] reads 16 ± 14 nM; that for `O=C(NCCCCc1ccccc1)n1c(=O)oc2ccc([N+](=O)[O-])cc21` [Example 11, 5-Nitro-2-oxo-N-(4-phenylbutyl)-1,3-benzoxazole-3-carboxamide], 3 ± 2 nM.
The same measure for `O=C(c1ccc(Cl)cc1)c1ccc2c(c1)oc(=O)n2C(=O)NCCCCc1ccccc1` [Example 38, 6-(4-Chlorobenzoyl)-2-oxo-N-(4-phenylbutyl)-1,3-benzoxazole-3-carboxamide]: 14 ± 4 nM; for `O=C(NCCCCc1ccccc1)n1c(=O)oc2cc(C(F)(F)F)ccc21` [Example 14, 2-Oxo-N-(4-phenylbutyl)-6-(trifluoromethyl)-1,3-benzoxazole-3-carboxamide]: 20 ± 9 nM; for `O=C(NCCCCc1ccccc1)n1c(=O)oc2c(-c3ccccc3)cccc21` [Example 27, 2-Oxo-7-phenyl-N-(4-phenylbutyl)-1,3-benzoxazole-3-carboxamide]: 91 ± 10 nM.
In turn, `O=C(NCCCCc1ccccc1)n1c(=O)oc2ccc(-c3ccc(F)cc3)cc21` [Example 22, 5-(4-Fluorophenyl)-2-oxo-N-(4-phenylbutyl)-1,3-benzoxazole-3-carboxamide] showed an IC50 of 56 ± 14 nM.
The same measure for `O=C(NCCCCc1ccccc1)n1c(=O)oc2cc(O)ccc21` [Example 35, 6-Hydroxy-2-oxo-N-(4-phenylbutyl)-1,3-benzoxazole-3-carboxamide]: 152 ± 87 nM; for `CCCCCCCCNC(=O)n1c(=O)oc2ccccc21` [Example 42, N-Octyl-2-oxo-1,3-benzoxazole-3-carboxamide]: 34 ± 14 nM; for `O=C(NCCCCc1ccccc1)n1c(=O)oc2cc([N+](=O)[O-])ccc21` [Example 12, 6-Nitro-2-oxo-N-(4-phenylbutyl)-1,3-benzoxazole-3-carboxamide]: 3 ± 1 nM.
The result for `Cc1cccc2c1oc(=O)n2C(=O)NCCCCc1ccccc1` [Example 18, 7-Methyl-2-oxo-N-(4-phenylbutyl)-1,3-benzoxazole-3-carboxamide] reads 23 ± 5 nM.
The same measure for `COc1ccc(-c2ccc3c(c2)oc(=O)n3C(=O)NCCCCc2ccccc2)cc1` [Example 24, 6-(4-Methoxyphenyl)-2-oxo-N-(4-phenylbutyl)-1,3-benzoxazole-3-carboxamide]: 67 ± 5 nM; for `O=C(NCCCCc1ccccc1)n1c(=O)oc2cc(Cl)ccc21` [Example 5, 6-Chloro-2-oxo-N-(4-phenylbutyl)-1,3-benzoxazole-3-carboxamide]: 33 ± 4 nM.
In turn, `O=C(NCCCc1ccccc1)n1c(=O)oc2ccccc21` [Example 43, 2-Oxo-N-(3-phenylpropyl)-1,3-benzoxazole-3-carboxamide] registered an IC50 of 55 ± 6 nM.
The result for `COc1ccc(CCCCNC(=O)n2c(=O)oc3ccccc32)cc1` [Example 45, N-[4-(4-Methoxyphenyl)butyl]-2-oxo-1,3-benzoxazole-3-carboxamide] reads 63 ± 22 nM; that for `Cc1ccc(CCCCNC(=O)n2c(=O)oc3ccccc32)cc1` [Example 47, 2-Oxo-N-[4-(p-tolyl)butyl]-1,3-benzoxazole-3-carboxamide], 28 nM; that for `COc1ccc(-c2ccc3oc(=O)n(C(=O)NCCCCc4ccccc4)c3c2)cc1` [Example 21, 5-(4-Methoxyphenyl)-2-oxo-N-(4-phenylbutyl)-1,3-benzoxazole-3-carboxamide], 68 nM.
In turn, `O=C(NCCCCc1ccccc1)n1c(=O)oc2ccccc21` [Example 1, 2-Oxo-N-(4-phenylbutyl)-1,3-benzoxazole-3-carboxamide] gave an IC50 of 64 ± 7 nM.
Take `O=C(NCCCCc1ccccc1)n1c(=O)oc2ccc(Br)cc21` [Example 6, 5-Bromo-2-oxo-N-(4-phenylbutyl)-1,3-benzoxazole-3-carboxamide]: the midpoint of inhibition, the IC50, lay at 22 ± 11 nM.
The result for `O=C(NCCCCc1ccccc1)n1c(=O)oc2cc(-c3ccccc3)ccc21` [Example 23, 2-Oxo-6-phenyl-N-(4-phenylbutyl)-1,3-benzoxazole-3-carboxamide] reads 84 ± 35 nM; that for `O=C(NCCCCCc1ccccc1)n1c(=O)oc2ccccc21` [Example 57, 2-Oxo-N-(5-phenylpentyl)-1,3-benzoxazole-3-carboxamide], 54 ± 12 nM.
